Measurements published in patent US8710045B2, “Agents for preventing and treating disorders involving modulation of the ryanodine receptors” (The Trustees of Columbia University in the City of New York, priority 2004, dated 2014).
“And” between values parts separate entries of the source, which are not always exact repeats. Equal entries are not always repeated.

How the values were obtained:
[1] = target: hERG current (Homo sapiens, UniProt Q12809); test: hERG current, PatchXpress 7000A automatic parallel patch clamp in hERG-transfected HEK 293 cells (Example 6); settings: for Individual Data (% Inhibition): single cell
Protocol: HEK293 cells were transfected with a plasmid containing the hERG cDNA and a neomycin resistance gene. Stable transfectants were selected by culturing the cells in the presence of G418. The selection pressure was maintained by continued culture in the presence of G418. […] Cells for use in electrophysiology were cultured in 35 mm dishes.
Onset and steady state block of hERG current was measured using a pulse pattern with fixed amplitudes (conditioning prepulse: +20 mV for 2 seconds; test pulse: −50 mV for 2 seconds) repeated at 10 second intervals, from a holding potential of −80 mV. Peak tail current was measured during the 2 second step to −50 mV. A steady state was maintained for at least 30 seconds before applying the test compound or the positive control. Peak tail current was monitored until a new steady state was achieved. Test compound concentrations were applied cumulatively in ascending order without washout between applications.
Data acquisition and analysis was performed using the suite of pCLAMP (Vre. 8.2) programs (Axon Instruments, Union City, Calif.). Steady state was defined by the limiting constant rate of change with time (linear time dependence). The steady state before and after application of the test or control compounds was used to calculate the percentage of current inhibited at each concentration. […] Nonlinear squares fits were solved with the Solver add-in for Excel 2000 (Microsoft, Redmond, Wash.).
Multiple compounds of the invention were tested for their effects on hERG currents. The compounds tested were: ARM036-Na, ARM047, ARM048, ARM050, ARM057, ARM064, ARM074, ARM075, ARM076, ARM077, ARM101, ARM102, ARM103, ARM104, ARM106, ARM107 and ARM26. […] Electrophysiological recordings were made using the PatchXpress 7000 A (Molecular Devices) automatic parallel patch clamp system. […] The duration of exposure to each test concentration was 5 minutes.

[2] = target: T1, PKA-phosphorylated RyR2 (Homo sapiens, UniProt Q92736); test: FKBP12.6 rebinding assay: FKBP12.6 binding to PKA-phosphorylated RyR2 in cardiac SR; settings: compound 0.5-1000 nM; Michaelis-Menten curve fitting
T1 construct: from tissue
Protocol: Samples are centrifuged at 95,000 g for 10 min and the pellets are washed three times in 0.2 ml imidazole buffer. The final pellets are pooled and resuspended in imidazole buffer (final concentration≈10 μg/μl). […] Samples then are centrifuged at 100,000 g for 10 minutes and pellets washed 3 times with imidizol buffer. […] Immunoblots are developed using an anti-FKBP antibody (1:3,000 dilution). […] The intracellular solution contains (in mM): CsCl, 60; CaCl2, 1; EGTA, 11; MgCl2, 1; K2ATP, 5; HEPES, 10; aspartic acid, 50; pH 7.4 (CsOH). Under these conditions, it is expected that the measured current was carried by Ba^2+ primarily through L-type calcium channels which is referred to as ICa,L. Drugs are applied by a local solution changer and reach the cell membrane within 1 s.
The FKBP12.6 rebinding assay described above is used to determine the amount of FKBP12.6 binding to PKA-phosphorylated RyR2 at various concentrations (0.5-1000 nM) of the compounds shown. EC50 values are calculated using Michaelis-Menten curve fitting.
The EC50 values are calculated using Michaelis-Menten curve fitting.

hERG current, sequence (Q12809 whole entry): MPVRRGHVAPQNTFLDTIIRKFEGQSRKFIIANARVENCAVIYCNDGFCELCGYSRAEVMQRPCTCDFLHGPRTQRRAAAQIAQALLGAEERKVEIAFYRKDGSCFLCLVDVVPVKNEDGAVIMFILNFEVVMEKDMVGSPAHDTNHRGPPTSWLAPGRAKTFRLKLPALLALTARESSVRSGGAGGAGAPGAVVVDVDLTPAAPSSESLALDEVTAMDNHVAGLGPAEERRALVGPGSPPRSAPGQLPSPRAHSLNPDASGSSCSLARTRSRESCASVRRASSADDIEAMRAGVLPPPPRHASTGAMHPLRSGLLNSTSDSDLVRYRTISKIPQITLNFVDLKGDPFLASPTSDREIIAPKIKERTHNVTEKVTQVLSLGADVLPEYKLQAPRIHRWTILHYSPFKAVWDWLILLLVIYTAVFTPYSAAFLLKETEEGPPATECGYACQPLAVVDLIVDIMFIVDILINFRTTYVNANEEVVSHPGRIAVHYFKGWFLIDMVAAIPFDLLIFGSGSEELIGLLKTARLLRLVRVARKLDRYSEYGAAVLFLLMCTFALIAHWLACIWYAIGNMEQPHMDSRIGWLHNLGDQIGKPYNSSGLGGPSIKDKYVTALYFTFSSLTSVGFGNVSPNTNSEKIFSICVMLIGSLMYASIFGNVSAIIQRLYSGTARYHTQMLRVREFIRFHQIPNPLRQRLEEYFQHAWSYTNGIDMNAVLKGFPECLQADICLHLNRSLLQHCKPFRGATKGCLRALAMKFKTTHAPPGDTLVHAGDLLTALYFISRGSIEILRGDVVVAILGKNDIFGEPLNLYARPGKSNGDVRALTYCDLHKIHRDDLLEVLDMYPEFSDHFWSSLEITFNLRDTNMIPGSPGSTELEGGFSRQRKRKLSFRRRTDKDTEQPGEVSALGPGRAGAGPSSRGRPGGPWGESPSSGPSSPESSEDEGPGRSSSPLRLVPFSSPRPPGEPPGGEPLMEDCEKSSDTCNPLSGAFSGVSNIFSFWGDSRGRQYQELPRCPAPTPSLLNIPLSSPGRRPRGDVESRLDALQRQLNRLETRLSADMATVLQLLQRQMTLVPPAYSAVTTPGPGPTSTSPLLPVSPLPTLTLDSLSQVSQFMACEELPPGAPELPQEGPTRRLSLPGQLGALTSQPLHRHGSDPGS

Compound	EC50 [2] [nM]	other results
COc1ccc2c(c1)CN(C(=O)C(=O)[O-])CCS2.[Na+] [ARM036-Na]	–	Mean % hERG Inhibition ([1]; 0.01 μM): 0.2%; Individual Data (% Inhibition) ([1]; 0.01 μM): 0.0% and 0.3%; Mean % hERG Inhibition ([1]; 0.1 μM): 5.0%; Individual Data (% Inhibition) ([1]; 0.1 μM): 10.0% and 0.0%; Mean % hERG Inhibition ([1]; 1 μM): 5.5%; Individual Data (% Inhibition) ([1]; 1 μM): 2.4% and 8.6%; Mean % hERG Inhibition ([1]; 10 μM): 6.7%; Individual Data (% Inhibition) ([1]; 10 μM): 5.1% and 8.2%; hERG current inhibition at the highest concentration tested ([1]; highest concentration tested (10 μM)): less than 50%
COc1ccc2c(c1)CN(S(=O)(=O)CCN1CCC(Cc3ccccc3)CC1)CCS2 [S1]	150	–
CCCCN(CCCC)CCS(=O)(=O)N1CCSc2ccc(OC)cc2C1 [S2]	211	–
COc1ccc2c(c1)CN(S(C)(=O)=O)CCS2 [S4]	102	–
COc1ccc2c(c1)CN(S(=O)(=O)c1ccc(C)cc1)CCS2 [S5]	208	–
COc1ccc2c(c1)CN(C(=O)N1CCC(Cc3ccccc3)CC1)CCS2 [S6]	252	–
COc1ccc2c(c1)CN(C(=O)CI)CCS2 [S7]	55	–
COc1ccc2c(c1)CN(C(=O)c1ccccc1)CCS2 [S9]	205	–
COc1ccc2c(c1)CN(C(=O)Nc1ccccc1)CCS2 [S11]	181	–
COc1ccc2c(c1)CN(C(=S)Nc1ccccc1)CCS2 [S12]	197	–
COc1ccc2c(c1)CN(C(=O)CCC(=O)N1CCSc3ccc(OC)cc3C1)CCS2 [S19]	265	–
COc1ccc2c(c1)CN(C(=O)c1cccc(C(=O)N3CCSc4ccc(OC)cc4C3)n1)CCS2 [S22]	355	–

Second part, led by results:

EC50 [2] [nM]	Compound	other results
268	COc1ccc2c(c1)CN(C(=O)CCN1CCC(Cc3ccccc3)CC1)CCS2(=O)=O [S23]	–
40	COc1ccc2c(c1)C(=O)NCCS2 [S25]	–
~50	C=CC(=O)N1CCSc2ccc(OC)cc2C1 [S27]	–
44	COc1ccc2c(c1)CN(C(=O)CC(=O)O)CCS2 [S38]	–
100	COc1ccc2c(c1)CN(C(=O)c1ccc(N=[N+]=[N-])cc1O)CCS2 [S40]	–
80	COc1ccc2c(c1)CN(C(=O)C(=O)NCCSSCCNC(=O)c1ccc(N=[N+]=[N-])cc1[N+](=O)[O-])CCS2 [S43]	–
121	COc1ccc2c(c1)CN(C(=O)C(=O)NCCSSCCNC(=O)C(=O)N1CCSc3ccc(OC)cc3C1)CCS2 [S44]	–
80	COc1ccc2c(c1)CN(C(=O)C(=O)NCCSSCCNC(=O)c1ccc(N=[N+]=[N-])cc1O)CCS2 [S45]	–
150	COc1ccc2c(c1)CN(C(N)=O)CCS2 [S46]	–
